Results published in patent publication US11061034B2, “Blood biomarker for use in evaluation of effect of drug therapy on kidney cancer” (PUBLIC UNIVERSITY CORPORATION YOKOHAMA CITY UNIVERSITY, priority 2015, dated 2021).

Test system: kidney cancer
Test: Kidney cancer activity by FDG PET/CT during mTOR inhibitor therapy
Format: in vivo, human
Procedure: A change in blood PARK7 concentration was observed during treatment in four patients with kidney cancer who began to receive administration of mTOR inhibitor. The blood PARK7 concentration was measured as a concentration of plasma PARK7 with the commercially available ELISA kit in the same manner as in 1, described above, and the change in blood PARK7 level was evaluated by comparing values detected by a luminometer. The therapeutic effect of the mTOR inhibitor was clinically evaluated by FDG PET/CT. Kidney cancer progression was evaluated by FDG PET/CT, in parallel with the measurement of blood PARK7 concentration. FDG is an agent composed of glucose and a positron-emitting nuclide introduced thereto, and it has almost the same behavior in the body as glucose. […] The SUVmax values indicated below the respective images are semi-quantified values of FDG accumulation.

## CO[C@H]1C[C@@H]2CC[C@@H](C)[C@@](O)(O2)C(=O)C(=O)N2CCCC[C@H]2C(=O)O[C@H]([C@H](C)C[C@@H]2CC[C@@H](OC(=O)C(C)(CO)CO)[C@H](OC)C2)CC(=O)[C@H](C)/C=C(\C)[C@@H](O)[C@@H](OC)C(=O)[C@H](C)C[C@H](C)/C=C/C=C/C=C/1C [Temsirolimus]
Patient with kidney cancer, Case No. 4 (one case)
  accumulation of FDG (PET/CT): no change in accumulation of FDG
Patients with kidney cancer, Case Nos. 1 to 3 (three cases)
  accumulation of FDG (PET/CT): decreased accumulation of FDG
